How the values were obtained:
Format in all cases: in vivo
[1] = tested on: barnyardgrass (Echinochloa crus-galli); assay: Test A preemergence; settings: for Plant response rating, Barnyardgrass: 125 g ai/ha, preemergence, 0 to 100 scale (0 no effect, 100 complete control); for Barnyardgrass plant response rating (0 to 100 scale, 0 is no effect, 100 is complete control): Preemergence, 500 g ai/ha, visual injury approx. 10 d
How it was run: (§1)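 Treatment is preemergence as a directed soil spray after planting, or postemergence at the one- to two-leaf stage, with test chemical in a non-phytotoxic solvent mixture plus surfactant. Plants stay in the greenhouse about 10 d before visual injury scoring on a 0 to 100 scale versus untreated controls.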

[2] = tested on: giant foxtail (Setaria faberii); assay: Test A preemergence; settings: for Plant response rating, Foxtail, Giant: 125 g ai/ha, preemergence, 0 to 100 scale (0 no effect, 100 complete control); for Foxtail, Giant plant response rating (0 to 100 scale, 0 is no effect, 100 is complete control): Preemergence, 500 g ai/ha, visual injury approx. 10 d
How it was run: as §1

[3] = tested on: ragweed (common ragweed, Ambrosia elatior); assay: Test A preemergence; settings: for Plant response rating, Ragweed: 125 g ai/ha, preemergence, 0 to 100 scale (0 no effect, 100 complete control); for Ragweed plant response rating (0 to 100 scale, 0 is no effect, 100 is complete control): Preemergence, 500 g ai/ha, visual injury approx. 10 d
How it was run: as §1

[4] = tested on: ryegrass, Italian (Italian ryegrass, Lolium multiflorum); assay: Test A preemergence; settings: for Plant response rating, Ryegrass, Italian: 125 g ai/ha, preemergence, 0 to 100 scale (0 no effect, 100 complete control); for Ryegrass, Italian plant response rating (0 to 100 scale, 0 is no effect, 100 is complete control): Preemergence, 500 g ai/ha, visual injury approx. 10 d
How it was run: as §1

Kochia (Kochia scoparia) [5] = assay: Test A preemergence; settings: for Plant response rating, Kochia: 125 g ai/ha, preemergence, 0 to 100 scale (0 no effect, 100 complete control); for Kochia plant response rating (0 to 100 scale, 0 is no effect, 100 is complete control): Preemergence, 500 g ai/ha, visual injury approx. 10 d
How it was run: as §1

[6] = tested on: pigweed (Amaranthus retroflexus); assay: Test A preemergence; settings: for Plant response rating, Pigweed: 125 g ai/ha, preemergence, 0 to 100 scale (0 no effect, 100 complete control); for Pigweed plant response rating (0 to 100 scale, 0 is no effect, 100 is complete control): Preemergence, 500 g ai/ha, visual injury approx. 10 d
[7] = tested on: barnyardgrass (Echinochloa crus-galli); assay: Test B flooded paddy test; settings: Flood, 250 g ai/ha; 0 to 100 scale where 0 is no effect and 100 is complete control; 13 to 15 d
How it was run: (§2)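 Response scored visually against untreated controls, 0 = no effect and 100 = complete control, 13–15 d after treatment in the greenhouse. Compounds added to paddy water held 3 cm above soil surface. Treatment given at 2-leaf stage.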

[8] = tested on: sedge, umbrella (small-flower umbrella sedge, Cyperus difformis); assay: Test B flooded paddy test; settings: Flood, 250 g ai/ha; 0 to 100 scale where 0 is no effect and 100 is complete control; 13 to 15 d
How it was run: as §2

rice (Oryra sativa) = assay: Test B flooded paddy test; settings: Flood, 250 g ai/ha; 0 to 100 scale where 0 is no effect and 100 is complete control; 13 to 15 d
How it was run: as §2

[9] = tested on: ducksalad (Heteranthera limosa); assay: Test B flooded paddy test; settings: Flood, 250 g ai/ha; 0 to 100 scale where 0 is no effect and 100 is complete control; 13 to 15 d
How it was run: as §2

[10] = tested on: Galium (catchweed bedstraw, Galium aparine); assay: Test A postemergence; settings: postemergence; for Galium plant response rating: 125 g ai/ha, visual injury rating on 0 to 100 scale (0 no effect, 100 complete control), approx. 10 d; for Plant response rating, Galium: 500 g ai/ha, 0 to 100 scale, 0 no effect, 100 complete control
How it was run: as §1

[11] = tested on: blackgrass (Alopecurus myosuroides); assay: Test A postemergence; settings: postemergence; for Blackgrass plant response rating: 125 g ai/ha, visual injury rating on 0 to 100 scale (0 no effect, 100 complete control), approx. 10 d; for Plant response rating, Blackgrass: 500 g ai/ha, 0 to 100 scale, 0 no effect, 100 complete control
How it was run: as §1

[12] = tested on: barnyardgrass (Echinochloa crus-galli); assay: Test A postemergence; settings: postemergence; for Barnyardgrass plant response rating: 125 g ai/ha, visual injury rating on 0 to 100 scale (0 no effect, 100 complete control), approx. 10 d; for Plant response rating, Barnyardgrass: 500 g ai/ha, 0 to 100 scale, 0 no effect, 100 complete control
How it was run: as §1

[13] = tested on: giant foxtail (Setaria faberii); assay: Test A postemergence; settings: postemergence; for Foxtail, Giant plant response rating: 125 g ai/ha, visual injury rating on 0 to 100 scale (0 no effect, 100 complete control), approx. 10 d; for Plant response rating, Foxtail, Giant: 500 g ai/ha, 0 to 100 scale, 0 no effect, 100 complete control
How it was run: as §1

[14] = tested on: ragweed (common ragweed, Ambrosia elatior); assay: Test A postemergence; settings: postemergence; for Ragweed plant response rating: 125 g ai/ha, visual injury rating on 0 to 100 scale (0 no effect, 100 complete control), approx. 10 d; for Plant response rating, Ragweed: 500 g ai/ha, 0 to 100 scale, 0 no effect, 100 complete control
How it was run: as §1

[15] = tested on: ryegrass, Italian (Italian ryegrass, Lolium multiflorum); assay: Test A postemergence; settings: postemergence; for Ryegrass, Italian plant response rating: 125 g ai/ha, visual injury rating on 0 to 100 scale (0 no effect, 100 complete control), approx. 10 d; for Plant response rating, Ryegrass, Italian: 500 g ai/ha, 0 to 100 scale, 0 no effect, 100 complete control
How it was run: as §1

Kochia (Kochia scoparia) [16] = assay: Test A postemergence; settings: postemergence; for Kochia plant response rating: 125 g ai/ha, visual injury rating on 0 to 100 scale (0 no effect, 100 complete control), approx. 10 d; for Plant response rating, Kochia: 500 g ai/ha, 0 to 100 scale, 0 no effect, 100 complete control
How it was run: as §1

corn (Zea mays) = assay: Test A postemergence; settings: postemergence; for Corn plant response rating: 125 g ai/ha, visual injury rating on 0 to 100 scale (0 no effect, 100 complete control), approx. 10 d; for Plant response rating, Corn: 500 g ai/ha, 0 to 100 scale, 0 no effect, 100 complete control
How it was run: as §1

[17] = tested on: pigweed (Amaranthus retroflexus); assay: Test A postemergence; settings: postemergence; for Pigweed plant response rating: 125 g ai/ha, visual injury rating on 0 to 100 scale (0 no effect, 100 complete control), approx. 10 d; for Plant response rating, Pigweed: 500 g ai/ha, 0 to 100 scale, 0 no effect, 100 complete control
How it was run: as §1

[18] = tested on: wheat (Triticum aestivum); assay: Test A postemergence; settings: postemergence; for Wheat plant response rating: 125 g ai/ha, visual injury rating on 0 to 100 scale (0 no effect, 100 complete control), approx. 10 d; for Plant response rating, Wheat: 500 g ai/ha, 0 to 100 scale, 0 no effect, 100 complete control
How it was run: as §1

SMILES	Plant response rating, Barnyardgrass [1]	Barnyardgrass plant response rating (0 to 100 scale, 0 is no effect, 100 is complete control) [1]	Plant response rating, Foxtail, Giant [2]	Foxtail, Giant plant response rating (0 to 100 scale, 0 is no effect, 100 is complete control) [2]	Plant response rating, Ragweed [3]	Ragweed plant response rating (0 to 100 scale, 0 is no effect, 100 is complete control) [3]	Plant response rating, Ryegrass, Italian [4]	Ryegrass, Italian plant response rating (0 to 100 scale, 0 is no effect, 100 is complete control) [4]	Plant response rating, Kochia (Kochia (Kochia scoparia) [5])	Kochia plant response rating (0 to 100 scale, 0 is no effect, 100 is complete control) (Kochia (Kochia scoparia) [5])	Plant response rating, Pigweed [6]	Pigweed plant response rating (0 to 100 scale, 0 is no effect, 100 is complete control) [6]	Plant response rating, Barnyardgrass [7]	Plant response rating, Sedge, Umbrella [8]	Plant response rating, Rice (rice (Oryra sativa))	Plant response rating, Ducksalad [9]	Galium plant response rating [10]	Plant response rating, Galium [10]	Blackgrass plant response rating [11]	Plant response rating, Blackgrass [11]	other results
O=C1NCC(c2cccc(C#Cc3ccccc3)c2)C1C(=O)Nc1cccc(F)c1F (stereo not drawn) [Compound 451]	0	0	0	0	0	0	0	0	0	0	0	0	0	0	0	0	0	0	0	0	Barnyardgrass plant response rating [12]: 0; Plant response rating, Barnyardgrass [12]: 0; Foxtail, Giant plant response rating [13]: 0; Plant response rating, Foxtail, Giant [13]: 0; Ragweed plant response rating [14]: 0; Plant response rating, Ragweed [14]: 0; Ryegrass, Italian plant response rating [15]: 0; Plant response rating, Ryegrass, Italian [15]: 0; Kochia plant response rating (Kochia (Kochia scoparia) [16]): 0; Plant response rating, Kochia (Kochia (Kochia scoparia) [16]): 0; Corn plant response rating (corn (Zea mays)): 0; Plant response rating, Corn (corn (Zea mays)): 0; Pigweed plant response rating [17]: 0; Plant response rating, Pigweed [17]: 0; Wheat plant response rating [18]: 0; Plant response rating, Wheat [18]: 0
CS(=O)(=O)c1ccccc1NC(=O)C1C(=O)NCC1c1ccc(Br)cc1 (stereo not drawn) [Compound 452]	60	90	90	90	20	60	0	30	60	70	80	90	0	0	0	100	50	50	0	60	Barnyardgrass plant response rating [12]: 20; Plant response rating, Barnyardgrass [12]: 70; Foxtail, Giant plant response rating [13]: 60; Plant response rating, Foxtail, Giant [13]: 80; Ragweed plant response rating [14]: 0; Plant response rating, Ragweed [14]: 30; Ryegrass, Italian plant response rating [15]: 0; Plant response rating, Ryegrass, Italian [15]: 20; Kochia plant response rating (Kochia (Kochia scoparia) [16]): 50; Plant response rating, Kochia (Kochia (Kochia scoparia) [16]): 70; Corn plant response rating (corn (Zea mays)): 0; Plant response rating, Corn (corn (Zea mays)): 0; Pigweed plant response rating [17]: 50; Plant response rating, Pigweed [17]: 70; Wheat plant response rating [18]: 0; Plant response rating, Wheat [18]: 20
O=C(Nc1ccccc1F)C1C(=O)N(c2ccccc2)CC1c1cccc(C(F)(F)F)c1 (stereo not drawn) [Compound 456]	0	0	0	0	0	0	0	0	0	0	0	0	0	0	0	0	0	0	0	0	Barnyardgrass plant response rating [12]: 0; Plant response rating, Barnyardgrass [12]: 0; Foxtail, Giant plant response rating [13]: 0; Plant response rating, Foxtail, Giant [13]: 0; Ragweed plant response rating [14]: 0; Plant response rating, Ragweed [14]: 0; Ryegrass, Italian plant response rating [15]: 0; Plant response rating, Ryegrass, Italian [15]: 0; Kochia plant response rating (Kochia (Kochia scoparia) [16]): 0; Plant response rating, Kochia (Kochia (Kochia scoparia) [16]): 0; Corn plant response rating (corn (Zea mays)): 0; Plant response rating, Corn (corn (Zea mays)): 0; Pigweed plant response rating [17]: 0; Plant response rating, Pigweed [17]: 0; Wheat plant response rating [18]: 0; Plant response rating, Wheat [18]: 0

Reference: patent publication US12077503B2, “Substituted cyclic amides and their use as herbicides” (FMC CORPORATION, priority 2015, dated 2024)
